Measured values taken from PMC3580017 (Journal of natural products, 2013).

Tested on: HT-29 human colon cancer cells
Experiment: Cytotoxicity against HT-29 human colon cancer cells
Assay type: cell-based
Details: HT-29 versus CCD-112CoN

For `CCCC/C=C/C=C/C=C/[C@@H]1CC[C@@H](O)[C@H](C)N1C` [Compound 1, (2S,3R,6S)-6-((1E,3E,5E)-deca-1,3,5-trien-1-yl)-1,2-dimethylpiperidin-3-ol], which “selectivity ratio for cancerous colon cells versus normal colon cells” value is on record?
Its value is “approximately 4”.
